Measurements: US9149445B2, “Inhibition of glycerol-3-phosphate acyltransferase (GPAT) and associated enzymes for treatment of viral infections” (THE TRUSTEES OF PRINCETON UNIVERSITY, priority 2009, dated 2015)

Tests used:
GPAT = conditions: cited from earlier work
herpes simplex virus-1 = assay: HSV-1 replication in serum-starved fibroblasts, infectious progeny by TCID50 assay; format: cell-based; conditions: multiplicity 0.01 TCID50 units/cell
Description: FIG. 4. Dose-dependent Inhibition of Herpes Simplex Virus-1 Replication by Inhibition of GPAT. Serum-starved fibroblasts were infected with herpes simplex virus-1 at a multiplicity of 0.01 TCID50 units/cell. After adsorption for 1 h, cultures were re-fed with serum-free medium containing the indicated concentrations of FAS 115 or with DMSO, the solvent used to dissolve FAS 115. Medium was harvested at the indicated times after infection and the production of infectious progeny was determined by TCID50 assay on fibroblasts.
Serum-starved fibroblasts were infected with herpes simplex virus-1 at a multiplicity of 0.01 TCID50 units/cell. After adsorption for 1 h, cultures were re-fed with serum-free medium containing concentrations of 2.5μ/ml, 5μ/ml and 10μ/ml of FAS 115 of FAS 115 or with DMSO, the solvent used to dissolve FAS 115. The medium was assayed daily for five days and the production of infectious progeny was determined by TCID50 assay on fibroblasts. […] At higher concentrations, the concentration of infections virus was reduced to 1 TCID50 unit/ml or less after 5 days. (FIG. 4).

HCMV = HCMV replication in serum-starved fibroblasts, infectious progeny by TCID50 assay; format: cell-based, human cytomegalovirus; conditions: multiplicity 0.1 TCID50 units per cell
Description: FIG. 2. Inhibition of HCMV Replication by Inhibition of GPAT. Serum-starved fibroblasts were infected with HCMV at a multiplicity of 0.1 TCID50 units per cell. After adsorption for 1 h, cultures were re-fed with serum-free medium containing concentrations of 2.5 μg/ml, 5 μg/ml and 10 μg/ml of FAS 115 or with DMSO, the solvent used to dissolve FAS 115. Medium was assayed at 0, 2, 4, 6, 8, 10 and 12 days after infection and the production of infectious progeny was determined by TCID50 assay on fibroblasts.
Serum-starved fibroblasts were infected with HCMV at a multiplicity of 0.1 TCID50 units per cell. After adsorption for 1 h, cultures were re-fed with serum-free medium containing concentrations of 2.5μ/ml, 5μ/ml and 10μ/ml of FAS 115 or with DMSO, the solvent used to dissolve FAS 115. The medium was assayed at 0, 2, 4, 6, 8, 10 and 12 days after infection and the production of infectious progeny was determined by TCID50 assay on fibroblasts. […] At the highest concentration, production of virus was not observed on day 12 after infection. (FIG. 2).
Cell Lines, Viral Stock. Low passage fibroblasts (passage 6-8) were cultured in a medium containing 10% fetal bovine serum. Bacterial artificial chromosome-derived HCMV AD 169 strain (BADWT) was propagated in human foreskin fibroblasts (HFFs), concentrated via a 20% sorbitol cushion, and resuspended as a stock in serum-free media.

human cytomegalovirus = assay: HCMV late protein expression by Western blot in infected fibroblasts; format: cell-based; conditions: intermediate and high concentrations (5μ/ml and 10μ/ml); 96 hours after infection; multiplicity 3.0 TCID50 units/cell; compared to tubulin and IE-1
Description: FIG. 3. Dose-dependent Inhibition of Human Cytomegalovirus Late Protein Expression by Inhibition of GPAT. Serum-starved fibroblasts were infected with human cytomegalovirus at a multiplicity of 3.0 TCID50 units/cell. After adsorption for 1 h, cultures were re-fed with serum-free medium containing the indicated concentrations of FAS 115 or with DMSO, the solvent used to dissolve FAS 115. Cells were harvested at 96 hours after infection and viral protein expression was assessed by Western blot. IE-1 is a viral protein expressed immediately early during infection. pp65 and pp28 are viral proteins expressed late during HCMV infection. Tubulin is a loading control.
Serum-starved fibroblasts were infected with human cytomegalovirus at a multiplicity of 3.0 TCID50 units/cell. After adsorption for 1 h, cultures were re-fed with serum-free medium containing 2.5μ/ml, 5μ/ml and 10μ/ml of FAS 115 or with DMSO, the solvent used to dissolve FAS 115. Cells were harvested at 96 hours after infection and viral protein expression was assessed by Western blot. IE-1 is a viral protein expressed during the immediate-early phase of infection. pp65 and pp28 are viral proteins expressed late during HCMV infection. Tubulin is a loading control. […] (FIG. 3).

mTOR = mTOR (Homo sapiens, UniProt P42345); conditions: selective mTOR inhibitors; cited from earlier work
[1] = tested on: panel of 140 protein kinases; conditions: cited from earlier work

CCCCCCCC[C@@]1(C)SC(=O)C=C1OC(=O)OCC [FAS 115]
inhibition of GPAT (GPAT): inhibits GPAT | concentration of infections virus (herpes simplex virus-1; higher concentrations (5μ/ml, 10μ/ml), after 5 days): ≤ 1 TCID50 unit/ml | viral titers lower than in untreated cells (herpes simplex virus-1; lowest FAS 115 concentration (2.5μ/ml)): about an order of magnitude | production of virus (HCMV; highest concentration (10μ/ml), day 12 after infection): not observed | viral titers reduced (HCMV; lowest FAS 115 concentration (2.5μ/ml), versus DMSO): about an order of magnitude | expression of pp28 (human cytomegalovirus): noticeably reduced | expression of pp65 (human cytomegalovirus): noticeably reduced

c1cncc(CN2CCC(n3ncc4c(N5CCOCC5)nc(-c5ccc6[nH]ccc6c5)nc43)CC2)c1 [WAY-600]
IC50 (mTOR): 9 nM

COC(=O)Nc1ccc(-c2nc(N3CCOCC3)c3cnn(C4CCN(C(=O)OC)CC4)c3n2)cc1 [WYE354]
IC50 (mTOR): 5 nM

CNC(=O)Nc1ccc(-c2nc(N3CC4CCC(C3)O4)c3cnn(C4CCC5(CC4)OCCO5)c3n2)cc1 [WYE-125132]
IC50 (mTOR): 0.19 nM

Cc1c(C(=O)N2CCOc3ccc(-c4ccc(N)nc4)cc3C2)ccc(S(C)(=O)=O)c1F [XL388]
IC50 [1]: > 3000 nM
